How the values were obtained:
Test in all cases: Saccharide competition of SP-D binding to BSA-mannan coated plates
iSP-D = molecular target: T1, iSP-D (Homo sapiens, UniProt P35247, D344N/D350N/E309K/INS346GSS/K307Q/V271E)
T1 construct: Full-length recombinant iSP-D was generated based upon the full-length hSP-D cDNA clone; made in house; host or cells: HEK293 (HEK293E, transient transfection)
T1 sequence (P35247 with tags, fused parts or gaps V271E/K307Q/E309K/D344N/INS346GSS/D350N): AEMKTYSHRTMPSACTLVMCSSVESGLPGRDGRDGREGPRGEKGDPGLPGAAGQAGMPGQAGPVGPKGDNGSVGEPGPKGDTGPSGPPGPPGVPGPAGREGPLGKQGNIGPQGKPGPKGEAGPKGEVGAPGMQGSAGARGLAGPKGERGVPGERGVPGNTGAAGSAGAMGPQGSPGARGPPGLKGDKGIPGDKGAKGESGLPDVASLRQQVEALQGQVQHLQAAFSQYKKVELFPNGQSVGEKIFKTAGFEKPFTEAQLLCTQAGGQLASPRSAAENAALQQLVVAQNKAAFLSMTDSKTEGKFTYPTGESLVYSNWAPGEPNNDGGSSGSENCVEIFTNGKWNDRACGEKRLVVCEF

hSP-D = molecular target: T2, hSP-D (Homo sapiens, UniProt P35247)
T2 construct: The full-length recombinant collectins pSP-D and hSP-D were constructed as published; made in house; host or cells: HEK293 (HEK293E, transient transfection)
T2 sequence (P35247 21-375): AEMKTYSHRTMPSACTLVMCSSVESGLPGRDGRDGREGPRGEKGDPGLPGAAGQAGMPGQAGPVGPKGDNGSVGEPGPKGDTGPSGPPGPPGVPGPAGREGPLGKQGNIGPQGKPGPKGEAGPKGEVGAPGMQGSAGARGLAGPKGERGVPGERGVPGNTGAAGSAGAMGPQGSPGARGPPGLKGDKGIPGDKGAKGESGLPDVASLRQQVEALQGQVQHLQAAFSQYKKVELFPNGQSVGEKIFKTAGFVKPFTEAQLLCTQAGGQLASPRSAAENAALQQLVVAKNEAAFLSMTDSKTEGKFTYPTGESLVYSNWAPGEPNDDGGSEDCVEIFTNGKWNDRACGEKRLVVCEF

pSP-D = molecular target: T3, pSP-D (Sus scrofa, UniProt Q9N1X4); design: species or system porcine
T3 sequence (Q9N1X4 21-378): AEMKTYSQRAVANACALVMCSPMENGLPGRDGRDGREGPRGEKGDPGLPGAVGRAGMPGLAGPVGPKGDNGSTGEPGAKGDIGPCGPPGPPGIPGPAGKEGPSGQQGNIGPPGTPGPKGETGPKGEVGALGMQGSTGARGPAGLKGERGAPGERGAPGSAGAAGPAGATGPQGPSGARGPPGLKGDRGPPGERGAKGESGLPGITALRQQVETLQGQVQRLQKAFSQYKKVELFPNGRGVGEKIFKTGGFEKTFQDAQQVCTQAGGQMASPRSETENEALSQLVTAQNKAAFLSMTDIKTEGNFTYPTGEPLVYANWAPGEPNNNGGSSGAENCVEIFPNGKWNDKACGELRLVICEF

| SMILES | IC50-value with iSP-D as compared to hSP-D (iSP-D; ratio of IC50 for inhibition of binding to BSA-mannan) | IC50 (hSP-D) [mM] | IC50 (iSP-D) [mM] | IC50 (pSP-D) [mM] |
| --- | --- | --- | --- | --- |
| O[C@H]1[C@H](O)[C@@H](O)[C@H](O)[C@@H](O)[C@H]1O [Myo-Inositol, myo-inositol] | three times higher | – | – | – |
| CC(=O)N[C@@H]1C(O)O[C@H](CO)[C@@H](O)[C@@H]1O (stereo partly shown) [ManNAc, N-acetylmannosamine] | – | 2.2 | 3.1 | 8 |
| O=C(CO)[C@@H](O)[C@H](O)[C@H](O)CO [Fructose, fructose] | – | 3.1 | 4.8 | 2.8 |
| O=C[C@H](O)[C@@H](O)[C@@H](O)[C@H](O)CO [D-Galactose, D-galactose] | – | 13.5 | 13.6 | 6.5 |
| OC[C@H]1OC(O)[C@H](O)[C@@H](O)[C@@H]1O (stereo partly drawn) [D-Glucose, D-glucose] | – | 4.6 | 7.8 | 2.8 |

Source: paper PMC6842947, “Enhanced Antiviral Activity of Human Surfactant Protein D by Site-Specific Engineering of the Carbohydrate Recognition Domain” (Frontiers in Immunology, 2019)
